In ChEMBL document CHEMBL6074628, “Rational design, synthesis and pharmacological characterization of novel aminopeptidase A inhibitors” (Bioorg Med Chem Lett, 2024):
Converted amounts (≈) assume the structure as drawn.

What was measured:
[1] = Inhibition of APA (unknown origin)
Aminopeptidase N = Aminopeptidase N (Homo sapiens, UniProt P15144); assay: Inhibition of APN (unknown origin)
Glutamyl aminopeptidase = molecular target: T1, Glutamyl aminopeptidase (Mus musculus, UniProt P16406); assay: Inhibition of recombinant mouse aminopeptidase A activity
T1 sequence (P16406 whole entry): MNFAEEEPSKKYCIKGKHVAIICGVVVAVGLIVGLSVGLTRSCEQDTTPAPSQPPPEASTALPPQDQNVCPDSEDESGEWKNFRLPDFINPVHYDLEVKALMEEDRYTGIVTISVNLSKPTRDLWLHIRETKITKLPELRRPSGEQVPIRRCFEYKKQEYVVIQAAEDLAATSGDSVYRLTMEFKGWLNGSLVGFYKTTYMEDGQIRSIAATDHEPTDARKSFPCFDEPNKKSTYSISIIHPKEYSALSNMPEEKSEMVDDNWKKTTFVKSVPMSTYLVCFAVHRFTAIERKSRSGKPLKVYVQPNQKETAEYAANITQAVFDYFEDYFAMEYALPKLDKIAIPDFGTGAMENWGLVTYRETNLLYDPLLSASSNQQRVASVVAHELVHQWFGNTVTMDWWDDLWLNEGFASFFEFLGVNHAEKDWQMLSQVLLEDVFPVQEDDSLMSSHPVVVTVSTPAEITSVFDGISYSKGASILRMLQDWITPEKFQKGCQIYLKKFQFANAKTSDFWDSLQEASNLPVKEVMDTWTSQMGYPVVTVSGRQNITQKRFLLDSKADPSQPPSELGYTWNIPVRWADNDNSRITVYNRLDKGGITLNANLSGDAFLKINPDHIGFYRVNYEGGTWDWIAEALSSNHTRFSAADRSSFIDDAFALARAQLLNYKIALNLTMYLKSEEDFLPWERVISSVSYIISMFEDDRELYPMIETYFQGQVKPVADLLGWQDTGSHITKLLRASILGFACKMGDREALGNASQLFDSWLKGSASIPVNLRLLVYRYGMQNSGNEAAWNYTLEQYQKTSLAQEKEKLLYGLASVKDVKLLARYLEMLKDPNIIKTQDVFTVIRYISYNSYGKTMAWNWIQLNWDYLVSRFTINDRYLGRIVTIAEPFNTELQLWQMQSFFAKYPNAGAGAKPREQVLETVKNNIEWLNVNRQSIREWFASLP

[2] = Inhibition of rabbit kidney aminopeptidase A using GluNA as substrate incubated for 1 hrs by absorbance based assay
[3] = Apparent permeability in human Caco-2 cells
[4] = Solubility of compound in phosphate buffer at pH 7.4
Cytochrome P450 1A2 = molecular target: T2, Cytochrome P450 1A2 (Homo sapiens, UniProt P05177); assay: Inhibition of CYP1A2 (unknown origin)
T2 sequence (P05177 whole entry): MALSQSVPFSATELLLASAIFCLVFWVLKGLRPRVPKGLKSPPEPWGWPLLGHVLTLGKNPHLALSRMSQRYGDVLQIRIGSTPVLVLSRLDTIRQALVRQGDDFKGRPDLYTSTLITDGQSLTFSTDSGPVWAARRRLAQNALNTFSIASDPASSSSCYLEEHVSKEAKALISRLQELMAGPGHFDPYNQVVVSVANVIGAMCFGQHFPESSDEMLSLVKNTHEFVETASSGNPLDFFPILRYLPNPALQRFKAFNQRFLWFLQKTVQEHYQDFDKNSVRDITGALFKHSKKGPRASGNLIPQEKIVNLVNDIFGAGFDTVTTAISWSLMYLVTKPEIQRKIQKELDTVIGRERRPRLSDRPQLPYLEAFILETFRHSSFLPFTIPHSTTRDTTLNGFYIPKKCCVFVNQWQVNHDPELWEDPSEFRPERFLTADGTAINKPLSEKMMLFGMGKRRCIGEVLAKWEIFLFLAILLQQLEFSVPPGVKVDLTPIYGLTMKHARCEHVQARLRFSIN

Cytochrome P450 2B6 = molecular target: T3, Cytochrome P450 2B6 (Homo sapiens, UniProt P20813); assay: Inhibition of CYP2B6 (unknown origin)
T3 sequence (P20813 whole entry): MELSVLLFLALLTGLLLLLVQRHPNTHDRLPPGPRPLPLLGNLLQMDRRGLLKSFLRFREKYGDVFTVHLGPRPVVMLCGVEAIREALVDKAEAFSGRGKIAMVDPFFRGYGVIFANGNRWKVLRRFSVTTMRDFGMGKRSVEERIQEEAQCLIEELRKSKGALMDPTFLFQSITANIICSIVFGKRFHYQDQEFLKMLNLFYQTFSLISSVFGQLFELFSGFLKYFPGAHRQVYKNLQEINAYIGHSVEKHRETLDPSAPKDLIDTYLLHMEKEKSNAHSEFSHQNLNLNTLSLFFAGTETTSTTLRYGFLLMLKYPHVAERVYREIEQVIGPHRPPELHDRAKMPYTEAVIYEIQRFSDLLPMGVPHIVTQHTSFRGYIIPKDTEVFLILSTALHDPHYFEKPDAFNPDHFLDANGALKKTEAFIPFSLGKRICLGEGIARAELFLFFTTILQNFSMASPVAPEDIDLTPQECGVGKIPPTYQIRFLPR

Cytochrome P450 2C9 = Cytochrome P450 2C9 (Homo sapiens, UniProt P11712); assay: Inhibition of CYP2C9 (unknown origin)
Chain of Cytochrome P450 2C9 (P11712 whole entry): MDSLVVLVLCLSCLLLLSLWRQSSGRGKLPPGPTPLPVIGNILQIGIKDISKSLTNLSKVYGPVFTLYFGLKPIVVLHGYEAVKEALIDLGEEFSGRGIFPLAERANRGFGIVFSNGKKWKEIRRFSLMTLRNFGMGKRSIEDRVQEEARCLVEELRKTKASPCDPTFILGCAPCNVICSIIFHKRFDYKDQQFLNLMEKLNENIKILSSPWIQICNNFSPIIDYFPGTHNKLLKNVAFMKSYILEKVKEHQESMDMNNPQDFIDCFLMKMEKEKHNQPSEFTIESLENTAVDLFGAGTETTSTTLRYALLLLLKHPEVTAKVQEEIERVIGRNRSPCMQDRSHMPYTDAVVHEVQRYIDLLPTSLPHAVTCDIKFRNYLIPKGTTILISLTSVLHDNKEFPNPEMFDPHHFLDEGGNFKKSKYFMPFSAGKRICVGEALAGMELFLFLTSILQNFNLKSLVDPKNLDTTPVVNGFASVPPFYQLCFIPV

Cytochrome P450 2C19 = Cytochrome P450 2C19 (Homo sapiens, UniProt P33261); assay: Inhibition of CYP2C19 (unknown origin)
Chain of Cytochrome P450 2C19 (P33261 whole entry): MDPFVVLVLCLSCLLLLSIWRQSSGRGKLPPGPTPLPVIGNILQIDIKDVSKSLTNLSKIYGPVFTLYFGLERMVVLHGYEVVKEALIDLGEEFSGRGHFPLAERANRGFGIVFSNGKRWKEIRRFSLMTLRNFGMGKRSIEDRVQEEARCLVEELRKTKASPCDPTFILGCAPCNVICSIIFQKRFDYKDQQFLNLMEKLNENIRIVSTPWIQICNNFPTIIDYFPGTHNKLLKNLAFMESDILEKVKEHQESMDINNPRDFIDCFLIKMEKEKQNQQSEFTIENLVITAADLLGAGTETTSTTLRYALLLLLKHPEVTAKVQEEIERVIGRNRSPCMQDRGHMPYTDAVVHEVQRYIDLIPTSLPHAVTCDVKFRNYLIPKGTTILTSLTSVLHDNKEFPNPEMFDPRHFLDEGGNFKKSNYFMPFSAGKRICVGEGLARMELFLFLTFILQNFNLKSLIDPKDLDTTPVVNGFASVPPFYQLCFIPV

Cytochrome P450 2D6 = Cytochrome P450 2D6 (Homo sapiens, UniProt P10635); assay: Inhibition of CYP2D6 (unknown origin)
Chain of Cytochrome P450 2D6 (P10635 whole entry): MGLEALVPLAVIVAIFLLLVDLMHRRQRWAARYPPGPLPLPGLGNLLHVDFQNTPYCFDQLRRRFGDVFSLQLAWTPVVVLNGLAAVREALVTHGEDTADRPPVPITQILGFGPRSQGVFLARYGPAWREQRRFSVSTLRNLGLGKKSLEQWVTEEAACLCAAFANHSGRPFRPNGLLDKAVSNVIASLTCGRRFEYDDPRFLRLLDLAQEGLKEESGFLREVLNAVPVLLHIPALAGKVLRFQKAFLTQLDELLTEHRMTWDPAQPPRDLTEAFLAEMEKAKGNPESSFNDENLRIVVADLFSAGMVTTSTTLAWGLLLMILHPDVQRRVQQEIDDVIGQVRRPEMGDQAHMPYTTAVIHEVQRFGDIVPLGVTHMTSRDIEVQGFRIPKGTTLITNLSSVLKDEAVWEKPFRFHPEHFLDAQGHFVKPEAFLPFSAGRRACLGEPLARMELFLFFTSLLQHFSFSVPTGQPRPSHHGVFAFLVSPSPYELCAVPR

Cytochrome P450 3A4 = Cytochrome P450 3A4 (Homo sapiens, UniProt P08684); assay: Inhibition of CYP3A4 (unknown origin)
Chain of Cytochrome P450 3A4 (P08684 whole entry): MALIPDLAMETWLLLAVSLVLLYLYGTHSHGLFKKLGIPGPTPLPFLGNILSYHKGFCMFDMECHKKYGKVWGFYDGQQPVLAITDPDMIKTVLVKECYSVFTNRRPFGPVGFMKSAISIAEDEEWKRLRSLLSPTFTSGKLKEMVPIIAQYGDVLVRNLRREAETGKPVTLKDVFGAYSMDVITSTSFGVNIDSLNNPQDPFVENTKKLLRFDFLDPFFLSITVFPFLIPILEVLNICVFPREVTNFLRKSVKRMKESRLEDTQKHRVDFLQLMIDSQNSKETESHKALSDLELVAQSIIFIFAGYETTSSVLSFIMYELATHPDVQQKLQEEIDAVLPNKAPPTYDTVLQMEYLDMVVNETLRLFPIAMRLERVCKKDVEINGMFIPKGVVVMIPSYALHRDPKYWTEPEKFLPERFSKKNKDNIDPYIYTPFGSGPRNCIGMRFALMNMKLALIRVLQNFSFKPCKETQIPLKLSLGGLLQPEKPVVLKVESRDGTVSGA

[5] = Stability in human hepatocyte assessed as parent compound remaining measured after 1 hrs; conditions: hepatocytes
[6] = Stability in rat hepatocyte assessed as parent compound remaining measured after 1 hrs; conditions: hepatocytes
[7] = Half-life in Sprague-Dawley rat at 2 mg/kg, iv; conditions: in vivo
[8] = Hepatic extraction ratio in Sprague-Dawley rat at 2 mg/kg, iv; conditions: in vivo
[9] = Drug concentration in Sprague-Dawley rat cerebrospinal fluid at 2 mg/kg, iv measured after 5 mins
[10] = Drug concentration in Sprague-Dawley rat cerebrospinal fluid at 2 mg/kg, iv measured after 60 mins
[11] = Drug concentration in Sprague-Dawley rat brain at 2 mg/kg, iv measured after 5 mins
[12] = Drug concentration in Sprague-Dawley rat brain at 2 mg/kg, iv measured after 60 mins
in vivo [13] = conditions: mouse, iv, 2 mg/kg
Description: AUC (0 to t) in mouse at 2 mg/kg, iv

in vivo [14] = conditions: mouse, po, 20 mg/kg
Description: AUC (0 to t) in mouse at 20 mg/kg, po

in vivo [15] = conditions: mouse
in vivo [16] = conditions: Sprague-Dawley, rat, iv, 2 mg/kg
Description: Cmax in Sprague-Dawley rat at 2 mg/kg, iv

in vivo [17] = conditions: Sprague-Dawley, rat, iv, 2 mg/kg; remark: listed apart in the source
Description: Renal clearance in Sprague-Dawley rat at 2 mg/kg, iv

Chain of Aminopeptidase N (P15144 whole entry): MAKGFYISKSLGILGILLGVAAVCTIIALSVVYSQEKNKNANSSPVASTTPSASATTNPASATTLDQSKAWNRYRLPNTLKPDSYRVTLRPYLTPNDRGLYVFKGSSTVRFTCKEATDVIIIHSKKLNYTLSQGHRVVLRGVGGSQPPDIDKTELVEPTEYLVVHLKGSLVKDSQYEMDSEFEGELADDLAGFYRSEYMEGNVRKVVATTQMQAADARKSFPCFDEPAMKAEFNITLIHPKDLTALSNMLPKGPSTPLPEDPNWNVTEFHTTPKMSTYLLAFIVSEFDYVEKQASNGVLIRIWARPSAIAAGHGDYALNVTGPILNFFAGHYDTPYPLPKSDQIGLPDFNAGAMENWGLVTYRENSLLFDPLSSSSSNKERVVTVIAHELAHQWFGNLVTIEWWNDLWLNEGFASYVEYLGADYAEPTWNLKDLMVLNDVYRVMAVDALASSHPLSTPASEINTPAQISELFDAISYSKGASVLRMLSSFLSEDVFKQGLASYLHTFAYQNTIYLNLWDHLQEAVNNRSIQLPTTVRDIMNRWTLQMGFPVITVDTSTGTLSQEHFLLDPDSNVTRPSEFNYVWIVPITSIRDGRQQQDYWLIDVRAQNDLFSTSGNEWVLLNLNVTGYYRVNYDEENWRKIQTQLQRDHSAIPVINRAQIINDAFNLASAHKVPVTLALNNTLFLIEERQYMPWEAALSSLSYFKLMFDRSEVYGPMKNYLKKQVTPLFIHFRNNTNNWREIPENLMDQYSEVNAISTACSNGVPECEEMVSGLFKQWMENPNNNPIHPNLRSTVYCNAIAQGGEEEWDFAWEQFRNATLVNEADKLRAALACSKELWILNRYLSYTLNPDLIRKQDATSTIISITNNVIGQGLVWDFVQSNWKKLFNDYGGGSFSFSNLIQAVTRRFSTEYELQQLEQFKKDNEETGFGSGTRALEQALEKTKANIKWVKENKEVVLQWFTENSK

Compound: N[C@@H](CCS(=O)(=O)O)[C@@H](S)CCc1ccccc1
- Ki [1]: 30 nM
- Ki (Aminopeptidase N): > 10 µM

Compound: Cn1cc(CCP(=O)(O)C(N)CCC(=O)O)c2ccccc21 (centres undefined)
- IC50 (Glutamyl aminopeptidase): 30 nM

Compound: NC(CCC(=O)O)P(=O)(O)CCc1ccccc1OC(F)(F)F (centres undefined)
- IC50 (Glutamyl aminopeptidase): 26 nM

Compound: NC(CCC(=O)O)P(=O)(O)CCC1CCCCC1 (centres undefined)
- IC50 (Glutamyl aminopeptidase): 41 nM

Compound: COc1c(Cl)cccc1CCP(=O)(O)C(N)CCC(=O)O (centres undefined)
- IC50 (Glutamyl aminopeptidase): 54 nM

Compound: NC(CCC(=O)O)P(=O)(O)CCc1cccc(Cl)c1 (centres undefined)
- IC50 (Glutamyl aminopeptidase): 61 nM

Compound: NC(CCC(=O)O)P(=O)(O)CCc1cccc2ccccc12 (centres undefined)
- IC50 (Glutamyl aminopeptidase): 7 nM

Compound: NC(CCC(=O)O)P(=O)(O)CCCc1ccccc1 (racemic)
- IC50 (Glutamyl aminopeptidase): 54 nM

Compound: NC(CCP(=O)(O)O)P(=O)(O)CCc1ccccc1 (racemic)
- IC50 (Glutamyl aminopeptidase): 5400 nM

Compound: NC(CCCC(=O)O)P(=O)(O)CCc1ccccc1 (racemic)
- IC50 (Glutamyl aminopeptidase): 930 nM

Compound: Cc1ccc(CCP(=O)(O)C(N)CCC(=O)O)cc1 (centres undefined)
- IC50 (Glutamyl aminopeptidase): 23 nM

Compound: N[C@@H](CCC(=O)O)P(=O)(O)CCc1ccccc1
- IC50 (Glutamyl aminopeptidase): 10 nM

Compound: N[C@H](CS)CCC(=O)O
- Ki [2]: 140 nM

Compound: NC(CCC(=O)O)P(=O)(O)CCc1ccccc1Cl (centres undefined)
- IC50 (Glutamyl aminopeptidase): 21 nM

Compound: COc1ccccc1CCP(=O)(O)[C@@H](N)CCC(=O)O
- IC50 (Aminopeptidase N): > 20 µM
- IC50 (Glutamyl aminopeptidase): 4 nM
- Papp [3]: 0.5 ×10⁻⁶ cm/s
- solubility [4]: 165 µM (≈ 49.7 µg/mL)
- IC50 (Cytochrome P450 1A2): > 25 µM
- IC50 (Cytochrome P450 2B6): > 25 µM
- IC50 (Cytochrome P450 2C9): > 25 µM
- IC50 (Cytochrome P450 2C19): > 25 µM
- IC50 (Cytochrome P450 2D6): > 25 µM
- IC50 (Cytochrome P450 3A4): > 25 µM
- remaining at 1 h [5]: 99%
- remaining at 1 h [6]: 93%
- half-life [7]: ~30 min
- hepatic extraction ratio [8]: ~0.45
- concentration at 5 min [9]: 281 ng/mL
- concentration at 1 h [10]: 115 ng/mL
- concentration at 5 min [11]: 50.2 ng/g
- concentration at 1 h [12]: 15.6 ng/g
- AUC(0-t) (in vivo [13]): 919 ng·h/mL
- AUC(0-t) (in vivo [14]): 37.6 ng·h/mL
- bioavailability (in vivo [15]): 4.1%
- Cmax (in vivo [16]): 4920 ng/mL
- CL renal (in vivo [17]): 0.6 mL/min

Compound: NC(CCC(=O)O)P(=O)(O)CCc1cccc(Cl)c1Cl (centres undefined)
- IC50 (Glutamyl aminopeptidase): 26 nM

Compound: NC(CCC(=O)O)P(=O)(O)CCc1ccccc1Oc1ccccc1 (centres undefined)
- IC50 (Glutamyl aminopeptidase): 10 nM

Compound: Cc1ccccc1CCP(=O)(O)C(N)CCC(=O)O (centres undefined)
- IC50 (Glutamyl aminopeptidase): 18 nM

Compound: COc1cccc(CCP(=O)(O)C(N)CCC(=O)O)c1 (centres undefined)
- IC50 (Glutamyl aminopeptidase): 28 nM

Compound: NC(CCS(=O)(=O)O)P(=O)(O)CCc1ccccc1 (racemic)
- IC50 (Glutamyl aminopeptidase): 310 nM

Compound: NC(CCC(=O)O)P(=O)(O)Cc1ccccc1 (racemic)
- IC50 (Glutamyl aminopeptidase): 39 nM

Compound: NC(CCC(=O)O)P(=O)(O)CCc1ccccc1-c1ccccc1 (centres undefined)
- IC50 (Glutamyl aminopeptidase): 42 nM

Compound: NC(CCC(=O)O)P(=O)(O)CCc1ccccc1OC1CCCC1 (centres undefined)
- IC50 (Glutamyl aminopeptidase): 9 nM

Compound: NC(CCC(=O)O)P(=O)(O)CCc1ccccc1 (racemic)
- IC50 (Glutamyl aminopeptidase): 29 nM

Compound: COc1ccc(CCP(=O)(O)C(N)CCC(=O)O)cc1 (centres undefined)
- IC50 (Glutamyl aminopeptidase): 24 nM

Compound: NC(CCC(=O)O)P(=O)(O)CCc1ccc2ccccc2c1 (centres undefined)
- IC50 (Glutamyl aminopeptidase): 21 nM

Compound: COc1ccccc1CCP(=O)(O)C(N)CCC(=O)O (centres undefined)
- IC50 (Glutamyl aminopeptidase): 9 nM

Compound: NC(CCC(=O)O)P(=O)(O)CCc1ccccc1OC1CCCCC1 (centres undefined)
- IC50 (Glutamyl aminopeptidase): 1 nM

Compound: Cc1cccc(CCP(=O)(O)C(N)CCC(=O)O)c1 (centres undefined)
- IC50 (Glutamyl aminopeptidase): 27 nM

Compound: N[C@H](CCC(=O)O)P(=O)(O)CCc1ccccc1
- IC50 (Glutamyl aminopeptidase): 660 nM

Compound: NC(CCC(=O)O)P(=O)(O)CCn1ncc2ccccc21 (centres undefined)
- IC50 (Glutamyl aminopeptidase): 420 nM
